Data published in patent US20050209278A1, “Piperidinyl- and piperazinyl-sulfonylmethyl hydroxamic acids and their use as protease inhibitors” (priority 2002, published 2005).
pKi: −log10 of the molar value.

Experiments:
MMP-1 = target: T1, MMP-1 (Homo sapiens, UniProt P03956); experiment: In vitro MMP inhibition, Ki determination (fluorogenic substrate II); assay type: biochemical; settings: value not in parenthesis; read-out: MMP-1 Ki
T1 construct: made in house; host or cells: MMP-1-transfected HT-1080 cells (spent media)
T1 sequence (P03956 100-469): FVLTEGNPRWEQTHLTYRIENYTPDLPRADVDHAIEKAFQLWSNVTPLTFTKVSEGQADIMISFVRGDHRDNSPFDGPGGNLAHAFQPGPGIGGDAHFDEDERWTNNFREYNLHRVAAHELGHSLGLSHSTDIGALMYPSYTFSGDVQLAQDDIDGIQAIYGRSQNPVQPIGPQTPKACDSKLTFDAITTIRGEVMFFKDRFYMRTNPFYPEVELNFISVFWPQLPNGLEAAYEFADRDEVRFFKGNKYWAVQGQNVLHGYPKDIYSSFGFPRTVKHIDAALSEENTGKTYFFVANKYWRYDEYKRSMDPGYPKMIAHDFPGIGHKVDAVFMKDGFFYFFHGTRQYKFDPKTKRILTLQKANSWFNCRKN
Method: Several hydroxamic acids and salts thereof were analyzed in in vitro assays to determine their ability to inhibit the MMP cleavage of peptide substrates. […] and IC50 constants were calculated from the assayed hydroxamic acid-MMP interactions.
Human recombinant MMP-1, MMP-2, MMP-9, MMP-13, and MMP-14 were used in this assay. All enzymes were prepared in Assignee's laboratories following usual laboratory procedures. Protocols for the preparation and use of these enzymes are available in the scientific literature. See, e.g., Enzyme Nomenclature (Academic Press, San Diego, Calif., 1992) (and the citations therein). See also, Freije et al., “Molecular cloning and expression of collagenase-3, a novel human matrix metalloproteinase produced by breast carcinomas,” J Biol. Chem., 269(24), 16766-16773 (1994).
The MMP-1 proenzyme was purified from the spent media of MMP-1-transfected HT-1080 cells provided by Dr. Harold Welgus of Washington University (St. Louis, Mo.). The protein was purified on a zinc chelating column.
All MMPs were activated using 4-aminophenylmercuric acetate (“APMA”, Sigma Chemical, St. Louis, Mo.) or trypsin. MMP-9 also was activated using human recombinant MMP-3 (purified in Assignee's laboratory following standard cloning and purification techniques).
Two fluorogenic, methoxycoumarin-containing polypeptide substrates were used in the MMP inhibition assays: [drawing 427] Here, “Dpa” is 3-(2,4-dinitrophenyl)-L-2,3-diaminopropionyl group, and “MCA” is 7-methoxycoumarin-4-yl acetyl. Substrate (I) was purchased from Baychem (Redwood City, Calif.), and substrate II was prepared Assignee's laboratory. Substrate I was used in the IC50 determination assays, while substrate II was used in the Ki determination assays. In the absence of MMP inhibitory activity, either substrate is cleaved at the Gly-Leu peptide bond. This cleavage separates the highly fluorogenic peptide from the 2,4-dinitrophenyl quencher, thus resulting in increase of fluorescent intensity.
The stock solutions of the assayed hydroxamic acids (or salts thereof) were prepared in 1% dimethyl sulfoxide (DMSO). These stock solutions were diluted in Buffer A (100 mM Tris-HCl, 100 mM NaCl, 10 mM CaCl2, 0.05% polyoxyethylene 23 lauryl ether, pH 7.5) to obtain solutions with different hydroxamic acid concentrations, i.e., assay solutions with different concentrations of the assayed MMP inhibitory compound. The experiment controls contained the same amount of Buffer A/DMSO as the assayed sample, but contained no hydroxamic acid (or salt thereof).
The assays from which the Ki determinations were made were performed as follows. The assayed hydroxamic acid samples were incubated in separate wells of untreated white polystyrene plates (Nunc Nalgene International, Rochester, N.Y.), and analyzed on a Tecan SpectraFlour Plus plate reader. The excitation wavelength was 330 nm, and the emission wavelength—420 nm. All samples (assayed hydroxamic acids and controls) were incubated in separate plate wells at room temperature for 1 hr in the presence of 4 μM of MMP substrate (II). In the absence of MMP inhibitory activity, substrate II was cleaved at the Gly-Leu bond resulting in an increase of relative fluorescence. Inhibition was observed as a reduced rate of this increase in relative fluorescence. The various hydroxamic acids were analyzed using a single low enzyme concentration with a single substrate concentration fixed at or below the Km. This protocol is a modification of method by Knight et al., FEBS Lett., 296(3), 263-266 (1992). Apparent inhibitory constants were determined by non-linear regression of reaction velocity as a function of inhibitor and enzyme concentration using Morrison's equation, as described by Kuzmic, Anal. Biochem. 286, 45-50 (2000). […] Since the substrate concentration was chosen to be at or below the Km, the apparent Ki's from this analysis were reported as Ki's without correction for the influence of substrate.

MMP-13 = target: T2, MMP-13 (Homo sapiens, UniProt P45452); experiment: as above; assay type: biochemical; settings: value not in parenthesis; read-out: MMP-13 Ki
T2 construct: made in house; host or cells: baculovirus / insect cells
Method in brief: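 Ki determined with human recombinant MMP-13, baculovirus-expressed as proenzyme and activated with APMA. Fluorogenic MCA/Dpa substrate II at 4 μM (at or below Km) with low enzyme in Tris buffer pH 7.5 with CaCl2. Incubation was 1 h at room temperature, with fluorescence read at 330/420 nm.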

| Compound | pKi (MMP-1) | pKi (MMP-13) |
| --- | --- | --- |
| CCCCOc1ccc(N2CCN(S(=O)(=O)C3(C(=O)NO)CCN(C(=O)OCCF)CC3)CC2)cc1 [Example 113] | < 5.00 | 9.60 |
| CCc1ccc(N2CCN(S(=O)(=O)C3(C(=O)NO)CCOCC3)CC2)nc1 [Example 114] | 5.79 | 9.13 |
| CCCCOc1ccc(N2CCN(S(=O)(=O)C3(C(=O)NO)CCN(C(=O)OCC(F)(F)F)CC3)CC2)cc1 [Example 115] | < 5.00 | 8.93 |
| CC(C)(C)N1CCC(C(=O)NO)(S(=O)(=O)N2CCN(c3ccc(OCCCC(F)(F)F)cc3F)CC2)CC1 [Example 116] | < 5.00 | 8.92 |
| CCCCOc1ccc(N2CCN(S(=O)(=O)C3(C(=O)NO)CCN(C(=O)NCCOC)CC3)CC2)cc1 [Example 118] | < 5.00 | 9.37 |
| COCCN1CCC(C(=O)NO)(S(=O)(=O)N2CCN(c3ccc(OCC(F)(F)F)cc3)CC2)CC1 [Example 119] | < 5.00 | 9.10 |
| CCCCOc1ccc(N2CCN(S(=O)(=O)C3(C(=O)NO)CCN(c4ccc(O)cc4)CC3)CC2)cc1 [Example 121] | < 5.00 | 9.17 |
| O=C(c1cccnc1)N1CCC(C(=O)NO)(S(=O)(=O)N2CCN(c3ccc(OCCCC(F)(F)F)cc3)CC2)CC1 [Example 122] | < 5.00 | 10.52 |
| CCCCOc1ccc(N2CCN(S(=O)(=O)C3(C(=O)NO)CCN(C(=S)N(C)C)CC3)CC2)cc1 [Example 123] | < 5.00 | 9.13 |
| CCCCOc1ccc(N2CCN(S(=O)(=O)C3(C(=O)NO)CCN(C(=O)N4CCOCC4)CC3)CC2)cc1 [Example 124] | < 5.00 | 9.92 |
| CCCCOc1ccc(N2CCN(S(=O)(=O)C3(C(=O)NO)CCN(c4ccc(C)cn4)CC3)CC2)cc1 [Example 125] | < 5.00 | 8.78 |
| CCCCOc1ccc(N2CCN(S(=O)(=O)C3(C(=O)NO)CCN4CCCC4C3)CC2)cc1F (stereo not drawn) [Example 126] | < 5.00 | 8.15 |
| CCCCOc1ccc(N2CCN(S(=O)(=O)C3(C(=O)NO)CCN(C(=O)c4cc5ccccc5o4)CC3)CC2)cc1 [Example 127] | < 5.00 | 8.21 |
| CC(C)CCOc1ccc(N2CCN(S(=O)(=O)C3(C(=O)NO)CCN(C4CC4)CC3)CC2)cc1 [Example 128] | < 5.00 | 9.68 |
| CCCCOc1ccc(N2CCN(S(=O)(=O)C3(C(=O)NO)CCN(c4ccc(OCCOC)nn4)CC3)CC2)cc1 [Example 129] | < 5.00 | 9.52 |
| CCCCOc1ccc(N2CCN(S(=O)(=O)C3(C(=O)NO)CCN(c4ccc(C)nc4)CC3)CC2)cc1 [Example 131] | < 5.00 | 9.21 |
| O=C1c2ccccc2C(=O)N1CCCCc1ccc(N2CCN(S(=O)(=O)C3(C(=O)NO)CCOCC3)CC2)nc1 [Example 132] | 7.18 | 9.40 |
| CC(C)CCc1ccc(N2CCN(S(=O)(=O)C3(C(=O)NO)CCOCC3)CC2)nc1 [Example 133] | < 5.00 | 9.64 |

| Compound | pKi (MMP-1) | pKi (MMP-13) |
| --- | --- | --- |
| CCCc1ccc(N2CCN(S(=O)(=O)C3(C(=O)NO)CCOCC3)CC2)nc1 [Example 136] | 5.62 | 9.37 |
| Cc1ccc(N2CCN(S(=O)(=O)C3(C(=O)NO)CCOCC3)CC2)nc1 [Example 138] | 5.86 | 8.94 |
| CCCCOc1ccc(N2CCN(S(=O)(=O)C3(C(=O)NO)CCN(c4cc(C)ccn4)CC3)CC2)cc1 [Example 139] | 5.14 | 8.69 |
| CCCCOc1ccc(N2CCN(S(=O)(=O)C3(C(=O)NO)CCN(c4cnccn4)CC3)CC2)cc1 [Example 140] | < 5.00 | 9.35 |
| CCCCOc1ccc(N2CCN(S(=O)(=O)C3(C(=O)NO)CCN(C(=O)OCCOC)CC3)CC2)cc1 [Example 141] | 5.05 | 9.82 |
| CCCCOc1ccc(N2CCN(S(=O)(=O)C3(C(=O)NO)CCN(c4ccc(OC)nc4)CC3)CC2)cc1 [Example 142] | < 5.00 | 9.30 |
| CCCCOc1ccc(N2CCN(S(=O)(=O)C3(C(=O)NO)CCN(C(=O)c4cc5ccccc5s4)CC3)CC2)cc1 [Example 143] | < 5.00 | 8.15 |
| COCCN1CCC(C(=O)NO)(S(=O)(=O)N2CCN(c3ccc(OCC(F)(F)C(F)(F)F)cc3)CC2)CC1 [Example 144] | < 5.00 | 9.51 |
| CCCCOc1ccc(N2CCN(S(=O)(=O)C3(C(=O)NO)CCOCC3)CC2)cc1 [Example 145] | < 5.00 | 9.46 |
| CCCCc1ccc(N2CCN(S(=O)(=O)C3(C(=O)NO)CCN(c4ccc(C)cc4)CC3)CC2)cc1 [Example 146] | < 5.00 | 8.03 |
| CCCCCc1ccc(N2CCN(S(=O)(=O)C3(C(=O)NO)CCN(c4ccc(C)cc4)CC3)CC2)cc1 [Example 147] | < 5.00 | 8.13 |
| COCCN1CCC(C(=O)NO)(S(=O)(=O)N2CCN(c3ccc(OCCC(C)C)cc3)CC2)CC1 [Example 148] | < 5.00 | 9.62 |
| CCCCOc1ccc(N2CCN(S(=O)(=O)C3(C(=O)NO)CCN(c4ccccn4)CC3)CC2)cc1 [Example 149] | < 5.00 | 8.88 |
| CCCCOc1ccc(N2CCN(S(=O)(=O)C3(C(=O)NO)CCN(c4nc5ccccc5o4)CC3)CC2)cc1 [Example 150] | < 5.00 | 7.95 |
| O=C(NO)C1(S(=O)(=O)N2CCN(c3ccc(SC(F)(F)F)cc3)CC2)CCN(Cc2ccccc2)CC1 [Example 152] | < 5.00 | 8.24 |
| O=C(NO)C1(S(=O)(=O)N2CCN(c3ccc(OCCCC(F)(F)F)cc3)CC2)CCN(C2CC2)CC1 [Example 153] | < 5.00 | 10.00 |
| CCCCOc1ccc(N2CCN(S(=O)(=O)C3(C(=O)NO)CCN(c4cccnc4)CC3)CC2)cc1 [Example 154] | < 5.00 | 9.25 |
| CCCCOc1ccc(N2CCN(S(=O)(=O)C3(C(=O)NO)CCN(c4ncc(CC)cn4)CC3)CC2)cc1 [Example 155] | < 5.00 | 8.47 |
